This is an account of results in patent US20240132534A1, “OLIGONUCLEOTIDE PRIMER WITH AN ACYCLIC NUCLEOSIDE STRUCTURE FOR INITIAL CAPPING” (JIANGSU SYNTHGENE BIOTECHNOLOGY CO., LTD., priority 2022, published 2024).

Test [1] deals with T1, T7 RNA polymerase (Escherichia phage T7, UniProt P00573). The test is described as follows: In vitro transcription yield of mRNA by co-transcriptional capping. To be noted: for Increased yield relative to Comparative Example 1: mRNA IVT yield vs 50 μg of Comparative Example 1; for Yield: mRNA from 20 μl IVT, 1 μg template, 37° C. 2 h, Nanodrop One. It counts as biochemical. On the procedure: (§1) Test Example 1: Determination of in vitro transcription yield and capping efficiency of mRNA
T1 sequence (P00573 whole entry): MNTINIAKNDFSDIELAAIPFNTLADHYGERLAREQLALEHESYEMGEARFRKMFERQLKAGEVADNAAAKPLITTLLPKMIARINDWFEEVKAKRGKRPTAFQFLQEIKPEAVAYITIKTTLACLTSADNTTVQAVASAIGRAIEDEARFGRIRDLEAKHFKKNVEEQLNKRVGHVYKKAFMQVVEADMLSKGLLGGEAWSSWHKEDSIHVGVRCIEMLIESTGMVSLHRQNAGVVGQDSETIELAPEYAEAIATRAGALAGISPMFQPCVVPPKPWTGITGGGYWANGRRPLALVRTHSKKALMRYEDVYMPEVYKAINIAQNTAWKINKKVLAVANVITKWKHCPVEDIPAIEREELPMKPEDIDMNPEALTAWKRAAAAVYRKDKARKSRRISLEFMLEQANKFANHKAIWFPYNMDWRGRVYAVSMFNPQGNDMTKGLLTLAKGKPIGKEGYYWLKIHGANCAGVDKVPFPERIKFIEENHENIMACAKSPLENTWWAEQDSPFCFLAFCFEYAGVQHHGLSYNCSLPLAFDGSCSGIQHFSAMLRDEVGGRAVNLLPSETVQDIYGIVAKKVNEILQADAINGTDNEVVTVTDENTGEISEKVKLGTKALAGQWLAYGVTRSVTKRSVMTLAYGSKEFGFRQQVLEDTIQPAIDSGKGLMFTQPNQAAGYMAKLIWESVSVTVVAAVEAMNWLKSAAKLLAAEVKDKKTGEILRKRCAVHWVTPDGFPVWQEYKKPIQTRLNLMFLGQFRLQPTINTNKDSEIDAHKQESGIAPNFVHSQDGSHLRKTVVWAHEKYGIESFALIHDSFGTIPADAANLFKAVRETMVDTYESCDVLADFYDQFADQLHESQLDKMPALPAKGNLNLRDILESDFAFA
(§2) In vitro synthesis of mRNA was performed using the oligonucleotide primer with an acyclic nucleoside structure for initial capping by the co-transcriptional capping method. First, the plasmid was digested with NotI overnight at […]. DNA template was extracted to synthesize mRNA by in vitro transcription. The oligonucleotide primers with an acyclic nucleoside structure for initial capping in Examples 1-4, 6, 7, and 11 and the capping analogs in Comparative Examples 1-2 were used as cap structures respectively.
Note: During the experiment, the volume of materials required for the system was first calculated, and then the sample was added. The system was firstly added with sterile enzyme-free water, then added with 10X buffer, NTPs, and cap structure subsequently, mixed, centrifuged gently, then added with nuclease inhibitor, inorganic pyrophosphatase, T7 RNA polymerase, and linearized DNA template, mixed thoroughly, centrifuged gently, and incubated at 37° C. After 2 h, the system was added with 1U of DNase I and incubated at 37° C. for another 30 min to remove the DNA template. Then RNA was purified, usually by the magnetic bead purification method. The purified mRNA was dissolved in sterile enzyme-free water, and then quantitatively measured using Nanodrop One.

In test [2] the target is T1, T7 RNA polymerase. Description: IVT capping rate of mRNA by LC-MS. It is filed as biochemical. The following applies: for Capping rate: LC-MS after RNase H cleavage; for Increased capping rate relative to Comparative Example 1: vs capping rate 93.5% of Comparative Example 1. On the procedure: as §1, §2
Liquid chromatography mass spectrometry (LC-MS) was used to determine the IVT capping rate of mRNA with different initial cap analogs. First, it is necessary to design a labeled DNA probe that matches the starting base of the transcript product mRNA, and usually the label is biotin. The streptavidin-labeled magnetic beads were washed, and incubated with the synthesized DNA probe, mRNA and 10×RNase H reaction buffer at room temperature for 30 min. The mixture was mixed slowly while incubating, then added with 20 μl of RNase. H (5U/μl), incubated at 37° C. for 3 h, and mixed thoroughly every half hour. After the incubation was completed, the magnetic beads were washed and added with 100 μL of 75% methanol heated to 80° C. The mixture was heated to 80° C. on a hot plate and kept for 3 min, and then placed on a magnetic stand. The supernatant was collected and dried at room temperature for 45 min to 10 μl using an evaporative centrifuge. The sample was then resuspended in 50 μl of 100 μM EDTA/1% MeOH, which was ready for LC-MS analysis to determine RNA capping during the transcription reaction. Since there was a significant difference in molecular weight between capped and uncapped bases, the capping rate of mRNA transcription initiated by different cap analogs can be determined through the difference in molecular mass.

Another test has as its target T2, RIG-I (Homo sapiens, UniProt O95786).
T2 construct: endogenous in cells; host or cells: 293T cells
T2 sequence (O95786 1-925): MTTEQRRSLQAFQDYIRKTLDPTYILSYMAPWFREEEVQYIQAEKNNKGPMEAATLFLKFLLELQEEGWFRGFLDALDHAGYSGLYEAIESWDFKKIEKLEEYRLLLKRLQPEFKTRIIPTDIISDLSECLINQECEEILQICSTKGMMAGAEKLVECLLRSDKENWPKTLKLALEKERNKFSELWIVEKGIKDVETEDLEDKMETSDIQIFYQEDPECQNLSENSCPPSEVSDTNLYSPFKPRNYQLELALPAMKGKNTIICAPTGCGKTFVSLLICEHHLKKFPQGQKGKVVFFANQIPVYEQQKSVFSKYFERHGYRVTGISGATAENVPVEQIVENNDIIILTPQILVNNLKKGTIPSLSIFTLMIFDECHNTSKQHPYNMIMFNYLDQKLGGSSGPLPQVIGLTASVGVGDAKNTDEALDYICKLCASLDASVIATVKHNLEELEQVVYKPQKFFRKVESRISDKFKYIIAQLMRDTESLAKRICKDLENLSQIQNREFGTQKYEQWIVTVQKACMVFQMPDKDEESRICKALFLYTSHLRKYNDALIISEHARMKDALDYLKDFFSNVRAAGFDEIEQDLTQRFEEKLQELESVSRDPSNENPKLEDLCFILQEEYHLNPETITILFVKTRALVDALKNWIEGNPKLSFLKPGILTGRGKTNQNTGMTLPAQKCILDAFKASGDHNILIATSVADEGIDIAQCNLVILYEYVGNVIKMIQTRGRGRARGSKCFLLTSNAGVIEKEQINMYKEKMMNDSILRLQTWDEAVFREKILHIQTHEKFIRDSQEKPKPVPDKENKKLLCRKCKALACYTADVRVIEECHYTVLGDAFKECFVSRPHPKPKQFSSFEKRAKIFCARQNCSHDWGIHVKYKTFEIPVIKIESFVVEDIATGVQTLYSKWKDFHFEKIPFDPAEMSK
The test is described as follows: Binding ability of mRNA to RIG-I (RNA co-immunoprecipitation, RT-qPCR) in transfected 293T cells. It is filed as cell-based. The following applies: eGFP mRNA made with the cap analog, 24 h after transfection. The text has this:
Test Example 2: Determination of the binding ability of mRNA to RIG I
RIG-I mainly includes two repeated caspase activation and recruitment domains (CARD) at the N-terminus, a helicase structure in the middle and a RNA domain at the C-terminus. The overexpression of the N-terminal CARD domain of RIG-I can promote cells to secrete type I interferon (IFN) even in the absence of viral infection. Therefore, this domain is mainly responsible for transmitting signals downstream. RIG-I can recognize exogenous RNA, mediate the production of cytokines and chemokines, and recruit innate immune cells to trigger immune responses. mRNA with high immunogenicity is easily recognized and combined by RIG. Thus, mRNA with strong binding ability to RIG-1 has high immunogenicity.
In this study, 293T cells were transfected with the eGFP mRNAs prepared by in vitro transcription initiated by the oligonucleotide primers with an acyclic nucleoside structure for initial capping in Examples 1-4, 6, 7, and 11 and the cap analogs in Comparative Examples 1-2, and collected 24 hours later. The intracellular protein RIG I and RNA bound thereto were co-immunoprecipitated by the RNA co-immunoprecipitation method. Finally, reverse transcription and real-time quantitative PCR were performed on these mRNAs.
The specific cell culture conditions were the same as above. Cells were collected 24 hours after transfection. First, a fixing solution was added for incubation. After 10 min, glycine solution of an appropriate concentration was added to terminate the reaction, and cells were collected. The collected cells were lysed using the lysis solution, centrifuged at 12,000 rpm and 4° C. for 10 min. The supernatant was collected and incubated with an appropriate amount of RIG-I or IgG antibody on a shaker at 4° C. overnight. Then 20 μl of Protein A/G magnetic beads were added, incubated at 4° C. for 4 h, and washed on a magnetic stand. After washing was completed, RNA was extracted and used for subsequent RT-qPCR to determine the expression results.
(Quantitative PCR measures a nucleic acid by following its amplification.)

The target of a further test is T7 transcription (Escherichia phage T7, UniProt P00573). The following applies: cited from earlier work.
T7 transcription, sequence (P00573 whole entry): as the sequence (P00573 whole entry) above

`C[n+]1cn([C@@H](CO)O[C@@H](CO)COP(=O)([O-])OP(=O)(O)OP(=O)(O)OC[C@]23COC(C2OP(=O)(O)OC[C@H]2O[C@@H](n4cnc5c(=O)[nH]c(N)nc54)C(O)C2O)[C@H](n2cnc4c(N)ncnc42)O3)c2nc(N)[nH]c(=O)c21` (some centres unmarked) [Example 7]: at T7 RNA polymerase [1], the “Increased yield relative to Comparative Example 1” value worked out at 36% and the Yield was 68 µg. On T7 RNA polymerase [2], the Capping rate was determined as 97.6% and the “Increased capping rate relative to Comparative Example 1” value is 4.1%. Moreover, the “Relative binding ability to RIG-I” value at RIG-I was determined as 2.1 ± 0.21.

Take `CO[C@H]1C(OP(=O)(O)OC[C@H]2O[C@@H](n3cnc4c(=O)[nH]c(N)nc43)[C@@H](O)C2O)[C@@H](COP(=O)(O)OP(=O)([O-])OP(=O)(O)OC[C@H](CO)O[C@H](CO)n2c[n+](C)c3c(=O)[nH]c(N)nc32)O[C@H]1n1cnc2c(N)ncnc21` (some centres unmarked) [Example 1]: on T7 RNA polymerase [1], the “Increased yield relative to Comparative Example 1” value stood at 44% and the Yield was 72 µg. For the same molecule, on T7 RNA polymerase [2], the Capping rate is on record as 99.3% and the “Increased capping rate relative to Comparative Example 1” value worked out at 5.8%.

Turning to `COCCOC1C(OP(=O)(O)OC[C@H]2O[C@@H](n3cnc4c(=O)[nH]c(N)nc43)C(O)C2O)[C@@H](COP(=O)(O)OP(=O)(O)OP(=O)([O-])OC[C@H](CO)O[C@H](CO)n2c[n+](C)c3c(=O)[nH]c(N)nc32)O[C@H]1n1cnc2c(N)ncnc21` (some centres unmarked) [Example 6], the Yield on T7 RNA polymerase [1] turned out to be 44 µg. At T7 RNA polymerase [2], this molecule displayed a Capping rate of 95.2%. Besides, the “Relative binding ability to RIG-I” value at RIG-I stood at 1.4±0.32.

Consider `COC1C(OP(=O)(O)OC[C@H](CO)O[C@H](CO)n2cnc3c(=O)[nH]c(N)nc32)[C@@H](COP(=O)(O)OP(=O)(O)OP(=O)([O-])OC[C@H]2O[C@@H](n3c[n+](C)c4c(=O)[nH]c(N)nc43)C(O)C2O)O[C@H]1n1cnc2c(N)ncnc21` (some centres unmarked) [Comparative Example 2, reference compound], for which the Yield at T7 RNA polymerase [1] came out at 41 µg. For the same molecule, on T7 RNA polymerase [2], the Capping rate worked out at 90.1%. Further, on RIG-I, the “Relative binding ability to RIG-I” value amounted to 4.0 ± 0.31.

`COC1C(OP(=O)(O)OC[C@H]2O[C@@H](n3cnc4c(=O)[nH]c(N)nc43)C(O)C2O)[C@@H](COP(=O)(O)OP(=O)(O)OP(=O)([O-])OC[C@H]2O[C@@H](n3c[n+](C)c4c(=O)[nH]c(N)nc43)C(O)C2O)O[C@H]1n1cnc2c(N)ncnc21` (stereo in doubt) [Comparative Example 1, ^m7GpppA2′OMepG, reference compound]: the Yield on T7 RNA polymerase [1] came to 50 µg. At T7 RNA polymerase [2], this molecule came in with a Capping rate of 93.5%. The “Relative binding ability to RIG-I” value at RIG-I is recorded as 3.1±0.51. Also, the “Capped RNA prepared per milliliter of transcription reaction system” value at T7 transcription (per milliliter of transcription reaction) is on record as 4 mg. Further, the “Immunogenicity of transcription products” value at T7 transcription (vs ARCA) is “lower than that of ARCA”.

For the molecule `COC[C@@H](COP(=O)(O)OP(=O)([O-])OP(=O)(O)OC[C@H]1O[C@@H](n2cnc3c(N)ncnc32)C(OC)C1OP(=O)(O)OC[C@H]1O[C@@H](n2cnc3c(=O)[nH]c(N)nc32)C(O)C1O)O[C@H](CO)n1c[n+](C)c2c(=O)[nH]c(N)nc21` (stereo in doubt) [Example 11], on T7 RNA polymerase [1], the “Increased yield relative to Comparative Example 1” value worked out at 42% and the Yield was 71 µg. For the same molecule, on T7 RNA polymerase [2], the Capping rate stood at 96.8% and the “Increased capping rate relative to Comparative Example 1” value came out at 3.3%. Besides, the “Relative binding ability to RIG-I” value on RIG-I was found to be 1.5±0.25.

`COC[C@@H](O[C@@H](COP(=O)(O)OC[C@H](CO)O[C@H](CO)n1cnc2c(=O)[nH]c(N)nc21)COP(=O)(O)OP(=O)([O-])OP(=O)(O)OC[C@H](CO)O[C@H](CO)n1c[n+](C)c2c(=O)[nH]c(N)nc21)n1cnc2c(N)ncnc21` [Example 4] had a Yield at T7 RNA polymerase [1] of 45 µg. For the same molecule, the Capping rate on T7 RNA polymerase [2] is 93.3%. Further, the “Relative binding ability to RIG-I” value at RIG-I is 2.8 ± 0.62.

Take `CO[C@H]1C(OP(=O)(O)OC[C@H](CO)O[C@H](CO)n2cnc3c(=O)[nH]c(N)nc32)[C@@H](COP(=O)(O)OP(=O)([O-])OP(=O)(O)OC[C@H](CO)O[C@H](CO)n2c[n+](C)c3c(=O)[nH]c(N)nc32)O[C@H]1n1cnc2c(N)ncnc21` (some centres unmarked) [Example 2]: at T7 RNA polymerase [1], the Yield worked out at 58 µg. In addition, at T7 RNA polymerase [2], the Capping rate is recorded as 96.5% and the “Increased capping rate relative to Comparative Example 1” value is listed as 3%. In addition, the “Relative binding ability to RIG-I” value on RIG-I is reported as 2.4 ± 0.34.
